From patent US20240344241A1, “PROTEINACEOUS MOLECULES AND USES THEREFOR” (THE UNIVERSITY OF QUEENSLAND, priority 2021, published 2024) come the findings set out here.

In one data set the target is T1, Human plasma kallikrein (Homo sapiens, UniProt P03952).
T1 construct: Human β-FXIIa was obtained from Molecular Innovations, together with human FXa, human FXIa, human α-thrombin, and human plasma kallikrein; purchased Molecular Innovations; host or cells: purified from human plasma
Description: Plasma kallikrein inhibition assay. It counts as biochemical. As for the experimental part:
(§1) The activity of acyclic and cyclic MCoFx1-5 and analogues thereof was assessed in competitive inhibition assays, as previously described in Swedberg et al. (2016) J Med Chem, 59: 7287-7292. Human β-FXIIa was obtained from Molecular Innovations, together with human FXa, human FXIa, human α-thrombin, and human plasma kallikrein. Human cationic trypsin and human plasmin were obtained from Sigma-Aldrich, and recombinant human matriptase was sourced from R&D Systems. Recombinant human urokinase (uPA) and recombinant human tissue plasminogen activator (tPA) were expressed in Expi293 cells, as previously described in Li et al. (2019) Chembiochem, 20: 46-50. FXIIa inhibition assays were performed in clear, low-binding 96-well plates using 250 μL (final volume) of assay buffer (0.1 M Tris-HCl pH 8.0, 0.1 M NaCl, 10 mM CaCl2 and 0.005% Triton X-100). Inhibitors were serially diluted and incubated with 10 nM FXIIa at room temperature to reach equilibrium. After adding 100 μM Ac-QRFR-pNA substrate (KM=162 μM), enzymatic activity was measured by monitoring release of the pNA moiety using a TECAN infinite M1000 Pro plate reader (A=405 nm, reading interval, 10 s; assay time course, 7 min). Assays were conducted in three times in duplicate. Substrate kinetic constants (Michaelis-Menten) and inhibition constants (Morrison K) were determined by non-linear regression using Prism 7 (GraphPad). Selectivity assays with off-target proteases were performed in a similar way, except that different concentrations of enzyme and substrate were used, as indicated in Table 16. For assays using a fluorescent substrate (peptide-4-methylcoumaryl-7-amide, MCA), black low-binding 96-well plates were used and activity was measured using a TECAN infinite M1000 pro plate reader (λex 360 nm, λem 460 nm, reading interval, 30 s; assay time course, 5-30 min).

Data set [1] has as its system human umbilical vein endothelial cells (HUVECs).
Description: HUVECs were cultured in complete EGM™-2 medium until 80% confluence under 5% CO2 at 37° C. before being seeded onto a 96-well microplate at 5,000 cells/well. Cells were grown for 24 h prior to the assay. […] Peptides were diluted tenfold with serum-free EGM™-2 medium and incubated with HUVECs in triplicate. After 24 h incubation, peptide solutions were replaced with fresh complete EGM™-2 medium before the addition of 0.05% resazurin solution (Sigma-Aldrich). Cells were incubated for another 8 h and the absorbance of the plate was measured on a microplate reader at 540 and 620 nm. H2O and 1% Triton-X were used as control for 100 and 0% viability, separately.
For another data set, the target named is T2, Rec. human matriptase (Homo sapiens, UniProt Q9Y5Y6).
T2 construct: purchased R&D Systems
T2 sequence (Q9Y5Y6 615-855 limits assumed): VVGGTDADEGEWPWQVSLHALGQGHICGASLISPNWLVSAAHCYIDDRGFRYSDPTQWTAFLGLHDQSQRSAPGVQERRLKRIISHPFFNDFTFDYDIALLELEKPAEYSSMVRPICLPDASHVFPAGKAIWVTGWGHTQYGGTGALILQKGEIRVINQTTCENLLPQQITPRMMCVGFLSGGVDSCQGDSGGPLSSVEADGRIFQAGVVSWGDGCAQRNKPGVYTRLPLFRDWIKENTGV
Description: Matriptase inhibition assay. It counts as biochemical. To be noted: Table 10; read-out: Ki Matriptase. In short, it runs like this:
(§2)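 Competitive inhibition: serially diluted inhibitors were pre-incubated with enzyme at room temperature to equilibrium in 0.1 M Tris-HCl pH 8.0, 0.1 M NaCl, 10 mM CaCl2, 0.005% Triton X-100. Substrate hydrolysis was followed by pNA absorbance (405 nm) or MCA fluorescence (ex 360/em 460 nm); Morrison Ki by non-linear regression.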

A further data set has as its target T3, Human FXIa (Homo sapiens, UniProt P03951).
T3 construct: Human β-FXIIa was obtained from Molecular Innovations, together with human FXa, human FXIa, human α-thrombin, and human plasma kallikrein; purchased Molecular Innovations; host or cells: purified from human plasma
Description: FXIa inhibition assay. It is filed as biochemical. As for the experimental part:
as §1

Another data set has as its target T4, Human trypsin (Homo sapiens, UniProt P07477).
T4 construct: purchased Sigma-Aldrich; host or cells: purified from human tissue
Description: Trypsin competitive inhibition assay. It is filed as biochemical. To be noted: Table 10; read-out: Ki Trypsin. In short, it runs like this: as §2

Another data set concerns the target T5, Human thrombin (Homo sapiens, UniProt P00734).
T5 construct: Human β-FXIIa was obtained from Molecular Innovations, together with human FXa, human FXIa, human α-thrombin, and human plasma kallikrein; purchased Molecular Innovations; host or cells: purified from human plasma
Description: Thrombin inhibition assay. It counts as biochemical. On the procedure:
as §1

The subject of data set [2] is clotting via the extrinsic pathway. Description: Prothrombin time (PT) assay in human plasma. It counts as biochemical. To be noted: at 10 μM. An excerpt:
Citrated, platelet-poor plasma samples from healthy adults were collected, prepared, and stored using previously established collection protocols, such as in Zdenek et al. (2019) Toxicol in Vitro, 58: 97-109.
Standard coagulation assays were used to determine the effect of the inhibitors on the clotting time of human plasma. Activated partial thromboplastin time (aPTT) uses a Kaolin reagent (clay) to activate the intrinsic/contact pathway of the coagulation cascade, whereas prothrombin time (PT) uses Neoplastine (lyophilized thromboplastin prepared from rabbit cerebral tissue) to activate the extrinsic/tissue-factor pathway of the coagulation cascade. A minor adjustment was made to both tests (addition of 25 μL inhibitor or buffer; refer to Table 17) to accommodate the addition of an inhibitor without changing the total volume (and therefore relative ratios of additives) of the assay. Concentrations of inhibitor are reported as the concentration at the point of incubation in the assay, i.e. not taking into account the addition of the start reagent (calcium for aPTT, or Neoplastine for PT).
Clotting time (seconds) of plasma was automatically measured using a STA-R Max® analyzer (Stago, Asnieres sur Seine, France). Measurements were conducted using a viscosity-based (mechanical) detection system, whereby opposing magnets oscillate a small metal spherical pellet inside the test cuvette (250 μL total volume) until a clot is formed. Dilution of the inhibitor in Owren-Koller (OK) buffer for dose-response curves was performed automatically by the machine. Reagents were kept at 15-19° C. in the machine during experimentation and otherwise stored at 4° C. All tests were performed in triplicate.

Bridge positions count the residues as written; N and C are the ends. Peptide text beside a SMILES is read from it.

T3 sequence (P03951 388-625 limits assumed): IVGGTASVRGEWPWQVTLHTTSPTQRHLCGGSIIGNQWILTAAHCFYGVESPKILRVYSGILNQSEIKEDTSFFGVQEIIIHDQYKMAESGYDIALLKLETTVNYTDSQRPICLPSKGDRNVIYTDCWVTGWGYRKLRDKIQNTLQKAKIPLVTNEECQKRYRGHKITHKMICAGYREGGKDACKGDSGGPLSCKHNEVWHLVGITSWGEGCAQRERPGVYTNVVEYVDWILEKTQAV
T3 sequence (P03951 19-387 partner limits assumed): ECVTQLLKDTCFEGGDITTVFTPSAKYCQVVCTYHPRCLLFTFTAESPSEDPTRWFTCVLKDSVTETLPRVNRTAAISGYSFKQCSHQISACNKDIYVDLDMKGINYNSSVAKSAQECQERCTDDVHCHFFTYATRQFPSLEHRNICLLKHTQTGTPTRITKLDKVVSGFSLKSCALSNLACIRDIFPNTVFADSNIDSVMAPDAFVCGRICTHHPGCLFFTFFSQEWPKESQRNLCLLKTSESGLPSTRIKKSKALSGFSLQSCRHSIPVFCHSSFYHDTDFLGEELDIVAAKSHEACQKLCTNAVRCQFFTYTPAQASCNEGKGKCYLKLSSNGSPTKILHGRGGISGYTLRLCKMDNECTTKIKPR
T1 sequence (P03952 391-638 limits assumed): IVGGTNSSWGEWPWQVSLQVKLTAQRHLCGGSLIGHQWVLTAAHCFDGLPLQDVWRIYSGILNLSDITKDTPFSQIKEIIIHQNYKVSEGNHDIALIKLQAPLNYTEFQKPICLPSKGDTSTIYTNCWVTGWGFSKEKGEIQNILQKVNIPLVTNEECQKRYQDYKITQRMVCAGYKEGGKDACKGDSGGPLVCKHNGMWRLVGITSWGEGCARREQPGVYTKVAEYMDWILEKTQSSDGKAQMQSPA
T1 sequence (P03952 20-390 partner limits assumed): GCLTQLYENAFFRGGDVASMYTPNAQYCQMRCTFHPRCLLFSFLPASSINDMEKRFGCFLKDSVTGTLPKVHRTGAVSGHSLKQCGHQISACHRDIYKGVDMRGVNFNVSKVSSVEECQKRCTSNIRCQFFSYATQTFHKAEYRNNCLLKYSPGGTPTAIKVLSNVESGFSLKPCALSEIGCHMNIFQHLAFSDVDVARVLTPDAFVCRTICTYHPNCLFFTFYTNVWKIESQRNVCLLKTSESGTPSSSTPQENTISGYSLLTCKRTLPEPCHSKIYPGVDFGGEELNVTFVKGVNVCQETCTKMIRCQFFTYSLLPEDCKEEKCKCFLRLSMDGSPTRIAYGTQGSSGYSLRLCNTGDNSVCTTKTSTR

As to `CC[C@H](C)[C@@H]1NC(=O)CNC(=O)CNC(=O)[C@H](CC(=O)O)NC(=O)[C@H](Cc2ccc(O)cc2)NC(=O)CNC(=O)[C@H](CO)NC(=O)CNC(=O)[C@@H]2CSSC[C@@H]3NC(=O)[C@H](CC(=O)O)NC(=O)[C@H](CO)NC(=O)[C@H](CC(=O)O)NC(=O)[C@H](CCCNC(=N)N)NC(=O)[C@H](CCCNC(=N)N)NC(=O)[C@@H]4CSSC[C@H](NC(=O)[C@H]([C@@H](C)CC)NC(=O)[C@H](CSSC[C@H](NC1=O)C(=O)N1CCC[C@H]1C(=O)N[C@@H](CCCNC(=N)N)C(=O)N[C@@H]([C@@H](C)CC)C(=O)NCC(=O)N[C@@H](CCCNC(=N)N)C(=O)N[C@@H](CC(C)C)C(=O)N4)NC(=O)[C@H](C)NC(=O)CNC(=O)[C@@H]1CCCN1C3=O)C(=O)N[C@@H](CCCNC(=N)N)C(=O)N[C@@H](C)C(=O)N[C@@H]([C@@H](C)O)C(=O)N[C@@H](CCCNC(=N)N)C(=O)N[C@@H](Cc1ccccc1)C(=O)N2` [MCoFx1 cyclic] (cyclo(ACICRATRFCGSGYDGGICPRIGRLCRRDSDCPG); disulfide 2-19, 4-26, 10-32), the inhibition (as a rule, the percentage by which the read-out fell short of the control) at 5 µM on Human plasma kallikrein (at 5 μM, read-out: percent inhibition Plasma kallikrein) turned out to be 0%; on Human FXIa (at 5 μM, read-out: percent inhibition FXIa), 0%; on Human thrombin (at 5 μM, read-out: percent inhibition Thrombin), 2%. The IC50 at Human plasma kallikrein (read-out: IC50 Plasma kallikrein), at Human FXIa (read-out: IC50 FXIa) and on Human thrombin (read-out: IC50 Thrombin) was greater than 5 µM each time. Also, the “cytotoxicity to HUVECs” value in data set [1] is reported as “not toxic”. The Ki (usually a dissociation constant, usually derived from enzyme kinetics or from competition with a known ligand) on Rec. human matriptase amounted to 9.12 µM; at Human trypsin, 1.11 µM. The “clotting time compared to control, PT assay” value in data set [2] is recorded as “No significant differences in clotting time compared to control assays”.
